Measured values: US20220144812A1, “QUINOLINE DERIVATIVES AND THEIR USE FOR THE TREATMENT OF CANCER” (Epizyme, Inc., priority 2019, published 2022)
Where two headings read alike, the source gives them in different places.

Columns and labels:
[1] = test system: H3K18Ac in HB-CLS-2 cells; test: H3K18AC in-cell western (ICW) assay; assay type: cell-based; conditions: H3K18Ac in-cell western, read-out: CREBBP ICW IC50
In short: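 HB-CLS-2 cells seeded 16–24 hours before 2 hr compound treatment at 37° C, 5% CO2, then methanol-fixed. H3K18Ac detected with rabbit monoclonal primary (overnight, 4° C) and 800CW anti-rabbit secondary; DRAQ5 stained DNA. Plates imaged at 700 and 800 nm for integrated intensity; IC50 in μM.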

647V cells = test: High throughput proliferation (HTP) assay; assay type: cell-based; conditions: high throughput proliferation, read-out: CREBBP HTP IC50
In short: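 Exponentially growing 647V cells in DMEM with 15% FBS were treated in triplicate with increasing compound concentrations at 37° C, 5% CO2. Viable cell number was read by CellTiter-Glo luminescence on day 7; IC50 in micromolar.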

CREBBP (1084-1701) = biological target: T1, CREBBP (1084-1701) (Homo sapiens, UniProt Q92793); test: Biochemical assay for CREBBP (1084-1701), SAMDI; conditions: SAMDI, read-out: CREBBP Biochemistry IC50
T1 construct: measured in the following biochemical assay using CREBBP (1084-1701); purchased
In short: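 CREBBP (1084-1701) preincubated with compound 30 min at RT, then substrate mix (biotin-H3 11-25 K14R/K23R peptide, acetyl-CoA) added for 30 min at RT. Reaction stopped with formic acid, neutralised with sodium bicarbonate. Peptide acetylation read by SAMDI mass spectrometry to derive IC50.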

EP300 (P300(1048-1664)) = biological target: T2, EP300 (P300(1048-1664)) (Homo sapiens, UniProt Q09472); test: Biochemical assay for EP300, SAMDI; conditions: EP300, SAMDI; read-out: EP300 Biochemistry IC50
T2 construct: P300(1048-1664)
T2 sequence (Q09472 1048-1664): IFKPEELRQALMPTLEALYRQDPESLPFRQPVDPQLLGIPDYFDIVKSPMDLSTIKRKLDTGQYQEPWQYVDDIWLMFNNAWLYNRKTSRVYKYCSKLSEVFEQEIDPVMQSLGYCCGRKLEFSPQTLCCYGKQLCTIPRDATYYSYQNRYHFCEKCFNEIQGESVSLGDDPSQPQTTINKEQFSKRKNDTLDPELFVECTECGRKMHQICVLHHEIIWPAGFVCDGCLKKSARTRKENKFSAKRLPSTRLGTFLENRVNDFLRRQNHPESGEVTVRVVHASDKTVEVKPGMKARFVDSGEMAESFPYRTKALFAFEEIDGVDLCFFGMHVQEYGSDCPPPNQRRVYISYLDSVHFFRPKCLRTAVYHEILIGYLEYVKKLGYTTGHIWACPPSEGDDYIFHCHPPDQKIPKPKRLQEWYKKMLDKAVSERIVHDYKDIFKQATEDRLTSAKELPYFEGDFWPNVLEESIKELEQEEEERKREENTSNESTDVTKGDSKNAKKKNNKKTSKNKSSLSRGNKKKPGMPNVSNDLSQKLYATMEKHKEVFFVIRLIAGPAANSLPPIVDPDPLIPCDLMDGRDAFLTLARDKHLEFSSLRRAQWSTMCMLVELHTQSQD
Excerpt: The following example describes materials and methods relating to a biochemical assay for EP300. IC50 values (micromolar (μM)) are summarized in Table 1, Table 2, and Table 3 under the column labeled: “EP300 Biochemistry IC50 (micromolar).”

[2] = Homo sapiens, 647-V, 647V cells

T1 sequence (Q92793 1084-1701): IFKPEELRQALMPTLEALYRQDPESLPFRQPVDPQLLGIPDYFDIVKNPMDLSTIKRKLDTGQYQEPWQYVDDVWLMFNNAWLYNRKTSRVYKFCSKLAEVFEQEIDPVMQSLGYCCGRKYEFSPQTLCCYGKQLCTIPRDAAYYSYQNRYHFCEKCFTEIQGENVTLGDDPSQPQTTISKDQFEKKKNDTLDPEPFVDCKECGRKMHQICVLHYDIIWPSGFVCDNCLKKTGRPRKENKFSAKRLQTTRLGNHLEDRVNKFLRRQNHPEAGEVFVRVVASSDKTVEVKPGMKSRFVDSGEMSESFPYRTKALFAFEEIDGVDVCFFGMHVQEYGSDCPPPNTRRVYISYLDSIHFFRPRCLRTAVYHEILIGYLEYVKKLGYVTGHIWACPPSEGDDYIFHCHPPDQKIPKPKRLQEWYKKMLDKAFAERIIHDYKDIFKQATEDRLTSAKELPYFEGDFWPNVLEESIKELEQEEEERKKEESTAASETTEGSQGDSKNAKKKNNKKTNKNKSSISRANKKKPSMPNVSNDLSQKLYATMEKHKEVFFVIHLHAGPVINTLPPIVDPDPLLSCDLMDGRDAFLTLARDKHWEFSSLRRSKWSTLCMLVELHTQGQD

| IC50 ([1]; HB-CLS-2 cells) | IC50 (CREBBP (1084-1701)) | IC50 (EP300 (P300(1048-1664))) | IC50 [1] | SMILES | IC50 (647V cells; [2]) | IC50 (647V cells; Homo sapiens, 647-V) | IC50 (647V cells) |
| --- | --- | --- | --- | --- | --- | --- | --- |
| 4900 nM | 22000 nM | 16000 nM |  | CCn1ncc(CN(C)C(=O)c2cc(-c3ccc(N(C)CCNC)c(C)n3)nc3ccc(Cl)cc23)c1C [Compound 417] | 3100 nM |  |  |
|  | 39.6 nM | 18.6 nM | 155 nM | CCn1ncc(CN(C)C(=O)c2cc(-c3ccc(NCCNC)c(C)n3)nc3ccc(COC)cc23)c1C [Compound 432] |  | 106 nM |  |
|  | 7.21 nM | 4.2 nM | 130 nM | CCn1ncc(CN(C)C(=O)c2nc(-c3cc(C)c4[nH]c(=O)[nH]c4c3)nc3ccc(Cl)cc23)c1C [Compound 436] |  | 94.2 nM |  |
|  | 88.2 nM | 937 nM | 2050 nM | CCn1ncc(CN(C)C(=O)c2nc(-c3ccc(OCCCNC)c(C(C)C)c3)nc3ccc(Cl)cc23)c1C [Compound 440] |  | 991 nM |  |
|  | 50.3 nM | 36.7 nM | 269 nM | CCn1ncc(CN(C)C(=O)c2nc(-c3ccc(OCCNC)c(Cl)c3)nc3ccc(C(F)F)cc23)c1C [Compound 441] |  | 216 nM |  |
|  | 48300 nM | 35500 nM | 14300 nM | CCn1ncc(CN(C)C(=O)c2nc(-c3nn(C)c(C(=O)NC)c3Cl)nc3ccc(Cl)cc23)c1C [Compound 448] |  | 12600 nM |  |
|  | 49.8 nM | 51.1 nM | 221 nM | CCn1ncc(CN(C)C(=O)c2cc(-c3ccc(NCCNC)c(C)n3)nc3ccc(C4CC4)cc23)c1C [Compound 449] |  | 135 nM |  |
|  | ≥ 50000 nM | 24600 nM | 20000 nM | CCn1ncc(CN(C)C(=O)c2nc(-c3cc(-c4ncon4)n(C)n3)nc3ccc(Cl)cc23)c1C [Compound 450] |  | 20000 nM |  |
|  | 3010 nM | 3880 nM | 13000 nM | CCn1ncc(CN(C)C(=O)c2nc(-c3cc(C)c(OCCCNC)c(NC)c3)nc3ccc(Cl)cc23)c1C [Compound 451] |  | 2280 nM |  |
|  | 22.7 nM | 5.5 nM | 141 nM | CCn1ncc(CN(C)C(=O)c2cc(-c3ccc(NC4COC4)c(C)n3)nc3ccc(Cl)cc23)c1C [Compound 454] |  | 133 nM |  |
|  | 104 nM | 880 nM | 1410 nM | CCN(Cc1cnn(CC)c1C)C(=O)c1cc(-c2ccc(NCCNC)c(C)n2)nc2ccc(Cl)cc12 [Compound 456] |  | 626 nM |  |
|  | 15.5 nM | 5.7 nM | 188 nM | CCn1ncc(CN(C)C(=O)c2cc(-c3ccc(NCC(O)CNC)c(C)n3)nc3ccc(Cl)cc23)c1C (stereo not shown) [Compound 457] |  | 41.7 nM |  |
|  | 1430 nM | 1460 nM | 1050 nM | CCn1ncc(CN(C)C(=O)c2nc(-c3cc(C)c4c(c3)NCCN4)nc3ccc(Cl)cc23)c1C [Compound 458] |  | 523 nM |  |
|  | 13.9 nM | 4.5 nM | 60.4 nM | CCn1ncc(CN(C)C(=O)c2nc(-c3cc(C)c4c(N)[nH]nc4c3)nc3ccc(Cl)cc23)c1C [Compound 459] |  | 54.4 nM |  |
|  | 2570 nM | 993 nM | 1400 nM | CCn1ncc(CN(C)C(=O)c2nc(-c3cc(C)c4c(c3)NC(=O)C4)nc3ccc(Cl)cc23)c1C [Compound 463] |  | 1510 nM |  |
|  | 38000 nM | 19300 nM | 20000 nM | CCn1ncc(CN(C)C(=O)c2nc(-c3ccc(OCCNC)c(Cl)c3)nc3ccc(CN(C)C)cc23)c1C [Compound 464] |  | 2050 nM |  |

Second part, the compound before the results:

| SMILES | IC50 ([1]; HB-CLS-2 cells) | IC50 (CREBBP (1084-1701)) | IC50 (EP300 (P300(1048-1664))) | IC50 [1] | IC50 (647V cells; [2]) | IC50 (647V cells; Homo sapiens, 647-V) | IC50 (647V cells) |
| --- | --- | --- | --- | --- | --- | --- | --- |
| CCc1cc(-c2nc(C(=O)N(C)Cc3cnn(CC)c3C)c3cc(Cl)ccc3n2)ccc1NC1CCOCC1 [Compound 415] | 240 nM | 32 nM | 23 nM |  | 240 nM |  |  |
| CCn1ncc(CN(C)C(=O)c2nc(-c3cc4c(N)n[nH]c4cc3C)nc3ccc(Cl)cc23)c1C [Compound 418] | 78 nM | 2.5 nM | 2.5 nM |  | 62 nM |  |  |
| CCn1ncc(CN(C)C(=O)c2nc(-n3nc(N)c4ccc(C)cc43)nc3ccc(Cl)cc23)c1C [Compound 419] | 5800 nM | 10000 nM | 4400 nM |  | 410 nM |  |  |
| CCn1ncc(CN(C)C(=O)c2nc(-c3cc4c(N)nn(C)c4cc3C)nc3ccc(Cl)cc23)c1C [Compound 433] |  | 24900 nM | 12500 nM | 20000 nM |  | 2220 nM |  |
| CCn1ncc(CN(C)C(=O)c2nc(-c3cnnc(N)c3)nc3ccc(Cl)cc23)c1C [Compound 434] |  | 3510 nM | 2700 nM | 1720 nM |  | 2250 nM |  |
| CCn1ncc(CN(C)C(=O)c2cc(-c3ccc(OCC(O)CNC)c(C)n3)nc3ccc(Cl)cc23)c1C (stereo not shown) [Compound 435] |  | 36.8 nM | 15.8 nM | 163 nM |  |  | 102 nM |
| CCn1ncc(CN(C)C(=O)c2cc(-c3cc4n[nH]cc4cn3)nc3ccc(Cl)cc23)c1C [Compound 437] |  | 7.82 nM | 5.2 nM | 74.5 nM |  | 119 nM |  |
| CCn1ncc(CN(C)C(=O)c2nc(-c3cc(N)c4cn[nH]c4c3)nc3ccc(Cl)cc23)c1C [Compound 438] |  | 2.5 nM | 37.8 nM | 84.8 nM |  | 78.5 nM |  |
| CCn1ncc(CN(C)C(=O)c2nc(-c3cc(C)c4nc[nH]c4c3)nc3ccc(COC)cc23)c1C [Compound 439] |  | 170 nM | 628 nM | 919 nM |  | 752 nM |  |
| CCn1ncc(CN(C)C(=O)c2cc(-c3ccc(OCCNC)c(C)n3)nc3ccc(Cl)cc23)c1C [Compound 442] |  | 76.9 nM | 414 nM | 195 nM |  | 350 nM |  |
| CCn1ncc(CN(C)C(=O)c2nc(-c3cnnc(C(=O)NC)c3)nc3ccc(Cl)cc23)c1C [Compound 443] |  | ≥ 50000 nM | ≥ 50000 nM | 20000 nM |  | 20000 nM |  |
| CCn1ncc(CN(C)C(=O)c2nc(-c3cc(C)cc(NC4CNC4)c3)nc3ccc(Cl)cc23)c1C [Compound 444] |  | 12.3 nM | 4.1 nM | 160 nM |  | 58.2 nM |  |
| CCn1ncc(CN(C)C(=O)c2nc(-c3ccc(OCCCNC)c(C)c3C)nc3ccc(Cl)cc23)c1C [Compound 446] |  | 24.8 nM | 13.2 nM | 112 nM |  | 34.2 nM |  |
| CCn1ncc(CN(C)C(=O)c2cc(-c3cc(C(=O)NC)n(C)n3)nc3ccc(Cl)cc23)c1C [Compound 447] |  | 12.1 nM | 2 nM | 51.4 nM |  | 68.8 nM |  |
| CCn1ncc(CN(C)C(=O)c2nc(-c3ccc(OCCNC)c(Cl)c3)nc3ccc(S(C)(=O)=O)cc23)c1C [Compound 453] |  | 3910 nM | 2360 nM | 4830 nM |  | 1200 nM |  |
| CCn1ncc(CN(C)C(=O)c2nc(-c3cc4c(NC(C)=O)n[nH]c4cc3C)nc3ccc(Cl)cc23)c1C [Compound 455] |  | 353 nM | 114 nM | 1200 nM |  | 547 nM |  |
| CCn1ncc(CN(C)C(=O)c2cc(-c3ccc(NCCNC)c(C)n3)nc3ccc(C(=O)N(C)C)cc23)c1C [Compound 460] |  | ≥ 50000 nM | ≥ 50000 nM | 20000 nM |  | 20000 nM |  |
| CCn1ncc(CN(C)C(=O)c2nc(-c3ccc(OCCCNC)c(C(C)(C)C)c3)nc3ccc(Cl)cc23)c1C [Compound 462] |  | 9700 nM | 15800 nM | 16400 nM |  | 1410 nM |  |
